According to ChEMBL document CHEMBL1148761, “2-aroylindoles and 2-aroylbenzofurans with N-hydroxyacrylamide substructures as a novel series of rationally designed histone deacetylase inhibitors” (J Med Chem, 2007):
Calls of active or inactive are those of the source. The rule behind the calls is not given here.

Experiments:
Histone deacetylase [1] = assay: Inhibition of HDAC in HeLa cells; assay type: cell-based, Homo sapiens
Histone deacetylase [2] = assay: Inhibition of HDAC in HeLa cells assessed as induction of human histone H3 hyperacetylation; assay type: cell-based
HeLa = assay: Cytotoxicity against HeLa cells; assay type: functional, cell-based; details: Homo sapiens
Histone deacetylase 1 = Histone deacetylase 1 (Homo sapiens, UniProt Q13547)
Description: Inhibition of recombinant HDAC1 in HeLa cells

Histone deacetylase 3 = Histone deacetylase 3 (Homo sapiens, UniProt O15379); assay: Inhibition of recombinant HDAC3
Histone deacetylase 8 = Histone deacetylase 8 (Homo sapiens, UniProt Q9BY41); assay: Inhibition of recombinant HDAC8
NCI-H460 = assay: Cytotoxicity against human NCI H460 cells; assay type: functional, cell-based
A549 [3] = assay: Cytotoxicity against human A549 cells; assay type: functional, cell-based
NCI = assay: Cytotoxicity against human NCI H69 cells; assay type: functional, cell-based
MCF7 = assay: Cytotoxicity against human MCF7 cells; assay type: functional, cell-based
MDA-MB-468 = assay: Cytotoxicity against human MDA-MB-468 cells; assay type: functional, cell-based
MDA-MB-231 = assay: Cytotoxicity against human MDA-MB-231cells; assay type: functional, cell-based
SK-BR-3 = assay: Cytotoxicity against human SKBR3 cells; assay type: functional, cell-based
SK-OV-3 = assay: Cytotoxicity against human SK-OV-3 cells; assay type: functional, cell-based
A2780 = assay: Cytotoxicity against human A2780 cells; assay type: functional, cell-based
[4] = Cytotoxicity against human non-proliferating RKOp21 cells; assay type: functional, cell-based
[5] = Cytotoxicity against human proliferating RKOp21 cells; assay type: functional, cell-based
HCT-15 = assay: Cytotoxicity against human HCT15 cells; assay type: functional, cell-based
HCT-116 = assay: Cytotoxicity against human HCT116 cells; assay type: functional, cell-based
PC-3 = assay: Cytotoxicity against human PC3 cells; assay type: functional, cell-based
ASPC1 = assay: Cytotoxicity against human AsPC1 cells; assay type: functional, cell-based
RKO [6] = assay: Induction of human histone H3 hyperacetylation in RKO cells at 1 to 3 uM; assay type: functional, cell-based
CAL-27 = assay: Cytotoxicity against human Cal27 cells; assay type: functional, cell-based
A-431 = assay: Cytotoxicity against human A431 cells; assay type: functional, cell-based
[7] = Cytotoxicity against human Hec-1-A cells; assay type: functional, cell-based
SAOS-2 = assay: Cytotoxicity against human Saos2 cells; assay type: functional, cell-based
[8] = Cytotoxicity against human U87MG cells; assay type: functional, cell-based, U-87MG ATCC; details: U-87 MG
cells = assay type: functional, cell-based; details: Homo sapiens, WM 266-4
Description: Cytotoxicity against human WM 266-4 cells

K562 = assay: Cytotoxicity against human K562 cells; assay type: functional, cell-based
EOL1 = assay: Cytotoxicity against human EOL1cells; assay type: functional, cell-based
CCRF-CEM [9] = assay: Cytotoxicity against human CCRF-CEM cells; assay type: functional, cell-based
CCRF-CEM [10] = assay: Cytotoxicity against vincristine resistant human CCRF-CEM cells; assay type: functional, cell-based
A549 [11] = assay: Induction of apoptosis in A549 cells at 10 uM; assay type: functional, cell-based; details: Homo sapiens
A549 [12] = assay: Induction of human histone H3 hyperacetylation in A549 cells at 1 to 3 uM; assay type: functional, cell-based
RKO [13] = assay: Inhibition of histone-H3S phosphorylation in human RKO cells at 10 uM; assay type: cell-based
549 = assay: Inhibition of histone-H3S phosphorylation in […] cells at 10 uM; assay type: cell-based

Histone deacetylase 1, sequence (Q13547 whole entry): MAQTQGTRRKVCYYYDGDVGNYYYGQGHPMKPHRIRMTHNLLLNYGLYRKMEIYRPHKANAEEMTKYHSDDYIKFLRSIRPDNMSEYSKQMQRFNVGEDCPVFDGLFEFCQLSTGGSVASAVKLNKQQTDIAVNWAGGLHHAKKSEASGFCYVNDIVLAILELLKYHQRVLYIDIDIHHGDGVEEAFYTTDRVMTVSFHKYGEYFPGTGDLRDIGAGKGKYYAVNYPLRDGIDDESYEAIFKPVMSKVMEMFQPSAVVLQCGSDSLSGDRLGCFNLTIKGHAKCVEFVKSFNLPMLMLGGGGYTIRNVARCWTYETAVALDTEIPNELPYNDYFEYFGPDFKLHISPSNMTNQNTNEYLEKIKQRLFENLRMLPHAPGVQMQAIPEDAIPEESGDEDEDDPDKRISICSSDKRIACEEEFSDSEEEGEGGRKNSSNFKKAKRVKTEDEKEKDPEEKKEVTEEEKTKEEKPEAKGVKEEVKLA
Histone deacetylase 8, sequence (Q9BY41 whole entry): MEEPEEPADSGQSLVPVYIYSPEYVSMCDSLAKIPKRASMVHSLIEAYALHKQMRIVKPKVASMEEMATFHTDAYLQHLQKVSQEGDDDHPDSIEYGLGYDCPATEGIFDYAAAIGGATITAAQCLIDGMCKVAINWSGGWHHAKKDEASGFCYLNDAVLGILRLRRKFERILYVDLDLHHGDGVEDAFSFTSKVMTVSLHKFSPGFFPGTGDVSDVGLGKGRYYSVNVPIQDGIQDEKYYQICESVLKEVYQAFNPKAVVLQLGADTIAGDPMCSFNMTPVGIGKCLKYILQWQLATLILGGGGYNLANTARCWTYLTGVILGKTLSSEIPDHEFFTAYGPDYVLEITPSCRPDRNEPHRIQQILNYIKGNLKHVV
Histone deacetylase 3, sequence (O15379 whole entry): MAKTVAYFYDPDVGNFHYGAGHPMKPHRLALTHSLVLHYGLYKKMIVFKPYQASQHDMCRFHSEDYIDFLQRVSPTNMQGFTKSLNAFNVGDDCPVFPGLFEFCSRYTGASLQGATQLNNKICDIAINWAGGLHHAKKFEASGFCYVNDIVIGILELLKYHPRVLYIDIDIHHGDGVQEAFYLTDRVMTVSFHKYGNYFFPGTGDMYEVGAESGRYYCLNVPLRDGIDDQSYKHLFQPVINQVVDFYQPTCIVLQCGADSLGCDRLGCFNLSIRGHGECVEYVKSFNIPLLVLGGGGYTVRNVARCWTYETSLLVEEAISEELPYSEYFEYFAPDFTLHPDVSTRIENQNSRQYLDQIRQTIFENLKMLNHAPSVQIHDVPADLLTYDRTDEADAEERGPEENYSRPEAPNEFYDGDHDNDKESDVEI

## COc1cccc(C(=O)c2cc3cc(/C=C/C(=O)NO)ccc3[nH]2)c1
Histone deacetylase [1]
  IC50: 330 nM
Histone deacetylase [2]
  EC50: 2570 nM
HeLa
  IC50: 2960 nM
Histone deacetylase 1
  IC50: 300 nM

## COc1cccc(C(=O)c2cc3cc(/C=C/C(=O)NO)ccc3o2)c1
Histone deacetylase [1]
  IC50: 650 nM
Histone deacetylase [2]
  EC50: 4100 nM
HeLa
  IC50: 4110 nM
Histone deacetylase 1
  IC50: 950 nM

## O=C(/C=C/c1cccc(C(=O)c2cc3ccccc3n2S(=O)(=O)c2ccccc2)c1)NO
Histone deacetylase [1]
  IC50: 34 nM
Histone deacetylase [2]
  EC50: 1000 nM
HeLa
  IC50: 1730 nM
Histone deacetylase 1
  IC50: 89 nM

## COc1ccc2c(c1)cc(C(=O)c1ccc(/C=C/C(=O)NO)cc1)n2S(=O)(=O)c1ccccc1
Histone deacetylase [1]
  IC50: 260 nM
Histone deacetylase [2]
  EC50: 6900 nM
HeLa
  IC50: 5420 nM
Histone deacetylase 1
  IC50: 880 nM

## COc1cc(C(=O)c2cc3cc(/C=C/C(=O)NO)ccc3o2)cc(OC)c1OC
Histone deacetylase [1]
  IC50: 1000 nM
Histone deacetylase [2]
  EC50: 7500 nM
HeLa
  IC50: 5770 nM
Histone deacetylase 1
  IC50: 1100 nM

## O=C(/C=C/c1cccc(C(=O)c2cc3ccccc3[nH]2)c1)NO
Histone deacetylase [1]
  IC50: 39 nM
Histone deacetylase [2]
  EC50: 1300 nM
HeLa
  IC50: 850 nM
Histone deacetylase 3
  IC50: 50 nM
Histone deacetylase 8
  IC50: 32 nM
NCI-H460
  IC50: 260 nM
A549 [3]
  IC50: 970 nM
NCI
  IC50: 330 nM
MCF7
  IC50: 1900 nM
MDA-MB-468
  IC50: 550 nM
MDA-MB-231
  IC50: 900 nM
SK-BR-3
  IC50: 530 nM
SK-OV-3
  IC50: 900 nM
A2780
  IC50: 340 nM
[4]
  IC50: 2570 nM
[5]
  IC50: 1050 nM
HCT-15
  IC50: 770 nM
HCT-116
  IC50: 360 nM
PC-3
  IC50: 210 nM
ASPC1
  IC50: 3900 nM
RKO [6]
  Activity: Active
CAL-27
  IC50: 750 nM
A-431
  IC50: 600 nM
[7]
  IC50: 620 nM
SAOS-2
  IC50: 1000 nM
[8]
  IC50: 1000 nM
cells
  IC50: 310 nM
K562
  IC50: 170 nM
EOL1
  IC50: 73 nM
CCRF-CEM [9]
  IC50: 200 nM
CCRF-CEM [10]
  IC50: 250 nM
A549 [11]
  Activity: Active
A549 [12]
  Activity: Active
RKO [13]
  Activity: Active
549
  Activity: Active
Histone deacetylase 1
  IC50: 31 nM

## O=C(/C=C/c1ccc2c(c1)cc(C(=O)c1ccccc1)n2S(=O)(=O)c1ccccc1)NO
Histone deacetylase [1]
  IC50: 90 nM
Histone deacetylase [2]
  EC50: 2670 nM
HeLa
  IC50: 2880 nM
Histone deacetylase 1
  IC50: 200 nM

## O=C(/C=C/c1ccc(C(=O)c2cc3ccccc3o2)cc1)NO
Histone deacetylase [1]
  IC50: 450 nM
Histone deacetylase [2]
  EC50: 1100 nM
HeLa
  IC50: 2600 nM
Histone deacetylase 1
  IC50: 520 nM

## O=C(/C=C/c1cccc(C(=O)c2cc3ccccc3o2)c1)NO
Histone deacetylase [1]
  IC50: 57 nM
Histone deacetylase [2]
  EC50: 290 nM
HeLa
  IC50: 680 nM
Histone deacetylase 3
  IC50: 79 nM
Histone deacetylase 8
  IC50: 79 nM
NCI-H460
  IC50: 250 nM
A549 [3]
  IC50: 770 nM
NCI
  IC50: 190 nM
MCF7
  IC50: 1300 nM
MDA-MB-468
  IC50: 500 nM
MDA-MB-231
  IC50: 730 nM
SK-BR-3
  IC50: 310 nM
SK-OV-3
  IC50: 740 nM
A2780
  IC50: 350 nM
[4]
  IC50: 3690 nM
[5]
  IC50: 960 nM
HCT-15
  IC50: 740 nM
HCT-116
  IC50: 360 nM
PC-3
  IC50: 160 nM
ASPC1
  IC50: 3500 nM
RKO [6]
  Activity: Active
CAL-27
  IC50: 660 nM
A-431
  IC50: 590 nM
[7]
  IC50: 470 nM
SAOS-2
  IC50: 920 nM
[8]
  IC50: 1100 nM
cells
  IC50: 310 nM
K562
  IC50: 150 nM
EOL1
  IC50: 49 nM
CCRF-CEM [9]
  IC50: 180 nM
CCRF-CEM [10]
  IC50: 240 nM
A549 [11]
  Activity: Active
A549 [12]
  Activity: Active
RKO [13]
  Activity: Active
549
  Activity: Active
Histone deacetylase 1
  IC50: 52 nM

## COc1cccc(C(=O)c2cc3cc(/C=C/C(=O)NO)ccc3n2S(=O)(=O)c2ccccc2)c1
Histone deacetylase [1]
  IC50: 120 nM
Histone deacetylase [2]
  EC50: 2780 nM
HeLa
  IC50: 3340 nM
Histone deacetylase 1
  IC50: 230 nM

## O=C(/C=C/c1ccc(C(=O)c2cc3ccccc3n2S(=O)(=O)c2ccccc2)cc1)NO
Histone deacetylase [1]
  IC50: 270 nM
Histone deacetylase [2]
  EC50: 5700 nM
HeLa
  IC50: 5420 nM
Histone deacetylase 1
  IC50: 690 nM

## O=C(/C=C/c1ccc2[nH]c(C(=O)c3ccccc3)cc2c1)NO
Histone deacetylase [1]
  IC50: 340 nM
Histone deacetylase [2]
  EC50: 3770 nM
HeLa
  IC50: 3970 nM
Histone deacetylase 1
  IC50: 250 nM

## O=C(/C=C/c1ccc2oc(C(=O)c3ccccc3)cc2c1)NO
Histone deacetylase [1]
  IC50: 830 nM
Histone deacetylase [2]
  EC50: 2650 nM
HeLa
  IC50: 5610 nM
Histone deacetylase 1
  IC50: 1200 nM

## O=C(CCCCCCC(=O)Nc1ccccc1)NO [VORINOSTAT]
MDA-MB-231
  IC50: 2200 nM
SK-OV-3
  IC50: 2200 nM
SAOS-2
  IC50: 2300 nM

## O=C(/C=C/c1ccc(C(=O)c2cc3ccccc3[nH]2)cc1)NO
Histone deacetylase [1]
  IC50: 310 nM
Histone deacetylase [2]
  EC50: 2970 nM
HeLa
  IC50: 4750 nM
Histone deacetylase 1
  IC50: 410 nM

## COc1ccc2[nH]c(C(=O)c3ccc(/C=C/C(=O)NO)cc3)cc2c1
Histone deacetylase [1]
  IC50: 280 nM
Histone deacetylase [2]
  EC50: 4270 nM
HeLa
  IC50: 3440 nM
Histone deacetylase 1
  IC50: 320 nM
